“And” between values parts separate entries of the source, which are not always exact repeats. Equal entries are not always repeated. “Also recorded” adds a separate entry of the source.
How the values were obtained:
[1] = test system: PMN; assay: PMN degranulation assessed by elastase release; type: cell-based, human
Description: (§1) To substantiate the notion that hepoxilin A3 was in fact the molecule responsible for PEEC bioactivity, it was examined whether synthetic hepoxilin A3 (BIOMOL, Plymouth Meeting, Pa.) could recapitulate PEEC bioactivity. […] Thus, authentic hepoxilin A3 recapitulates all known aspects of PEEC bioactivity consistent with the notion that hepoxilin A3 is in fact PEEC's active component.

[2] = test system: PMN transmigration across T84 cell monolayers; assay: Disruption of hepoxilin A3 gradient by basolateral addition, PMN transepithelial migration across T84 monolayers; type: cell-based, human; settings: 5 μg/ml basolateral; migration induced by S. typhimurium, recombinant SipA or imposed gradients of hepoxilin A3
Description: (§2) It was further examined if hepoxilin A3 acts in a gradient fashion to drive PMN migration from the basolateral to the apical epithelial surface. For these experiments, the physiologically directed (basolateral-to-apical) PMN transepithelial migration assay using cell culture inserts of inverted T84 monolayers has been used (McCormick et al., 1993; Parkos et al., 1992). Human PMN were isolated from normal volunteers, as described elsewhere (Parkos et al., 1992; Henson and Oades, 1975). PMN transmigration results were represented as PMN cell equivalents (CE) derived from a daily standard PMN dilution curve. PMN which completely traversed the monolayer were represented as the number of PMN (CE/ml in a total volume of 1 ml). Values were expressed as the mean and SD of an individual experiment done in triplicate repeated at least 3 times.
First, any potential gradient by adding excess synthetic hepoxilin A3 to the basolateral compartment was counteracted. […] The establishment of a hepoxilin A3 gradient was next measured quantitatively. […] Hepoxilin A3 decay in both compartments was exponential and the above stated T1/2 values were determined by analyzing the slope of a best-fit line to a log-linear analysis of each data set. […] Instead, the extent of recovery of hepoxilin A3 from the basolateral compartment following an apical application of 4500 pmoles was measured.

[3] = Stability in acidified acetonitrile; type: physicochemical; settings: overnight incubation in acid
Protocol: Molecules of the 5-LO, 8-LO, 12-LO and 15-LO pathways of arachadonic metabolism were analyzed by LC/MS breakdown patterns and compared to PEEC. […] Methylation of PEEC samples and hepoxilin A3 also provided similar ion spectra (data not shown). […] PEEC activity was also observed to have other chemical properties similar to hepoxilin A3, such as being labile in the presence of acetonitrile/0.1% trifluoroacetic acid (FIG. 3D).

[4] = test system: T84 monolayers; assay: Hepoxilin A3 degradation in apical and basolateral compartments of T84 monolayers; type: in vitro ADME, human; settings: for time to 50% loss of intact compound (T1/2), average: average of two experiments
Protocol: (§3) First, any potential gradient by adding excess synthetic hepoxilin A3 to the basolateral compartment was counteracted. […] The establishment of a hepoxilin A3 gradient was next measured quantitatively. […] Hepoxilin A3 decay in both compartments was exponential and the above stated T1/2 values were determined by analyzing the slope of a best-fit line to a log-linear analysis of each data set. Because of the complex degradation events occurring in both the apical and basolateral compartments, no attempt was made to calculate a transport rate. Instead, the extent of recovery of hepoxilin A3 from the basolateral compartment following an apical application of 4500 pmoles was measured.

[5] = test system: PMN; assay: PMN intracellular Ca2+ mobilization; type: cell-based, human
Description: Further, crude PEEC preparations were collected from postinfected T84 cells monolayers. Samples were first passed through an Amicon ultra-filtration apparatus (Millipore Corp.; Bedford, Mass.) fitted with a 2,000 Da cut-off membrane. Filtrate components were bound to a Backerbond spe™ octadecyl extraction column (J. T. Baker; Philipsburg, N.J.) that was subsequently eluted with water, hexane, and finally methanol. The methanol fraction was dried under vacuum and resuspended in 50:50 (vol:vol) methanol:2 mM Tris HCl (pH 7.5) and injected onto a Vydac C18 (10 μm; 300 Å) semi-preparative column ([…]) equilibrated with 2 mM Tris-HCl (pH 7.5). A methanol gradient of 1-10% over 10 minutes, then 10-60% over 25 minutes, followed by 60-100% over 45 minutes (all at room temperature) was used to isolate active PEEC fractions. Active fractions, having no detectable absorbance at 280 nm and weak absorbance at 214 nm, were analyzed using a Genesis C18 (4 μm, 120 Å) analytical HPLC column (4.6×150 mm) equilibrated with 5 mM triethylamine/acetic acid (pH 7.2). […] (FIG. 2A and B).
as §1

[6] = test system: T84 monolayers; assay: Recovery of hepoxilin A3 in basolateral compartment after apical application to T84 monolayers; type: in vitro ADME, human; settings: apical application of 4500 pmoles, over 90 minutes
Protocol: as §3

[7] = test system: PMN transmigration across T84 cell monolayers; assay: PMN transepithelial migration to imposed gradients of lipids across T84 monolayers; type: cell-based, human; settings: for PMN transepithelial migration (PEEC activity) induced by added lipid: imposed gradients across T84 cell monolayers, basolateral-to-apical
Protocol: Crude preparations of PEEC were collected from the apical surface of polarized T84 cell monolayers following infection with S. typhimurium SL1344 as previously described (McCormick et al., 1998). For these experiments, T84 intestinal epithelial cells (passages 45 to 65) were grown in a 1:1 mixture of Dulbecco-Vogt modified Eagles medium and Ham's F-12 medium supplemented with 15 mM Hepes buffer (pH 7.5), 14 mM NaHCO3, 40 mg/liter penicillin, 8 mg/liter ampicillin, 90 mg/liter streptomycin and 5% newborn calf serum. Polarized monolayers of T84 cells were formed and maintained on 0.33 cm^2 ring-supported collagen-coated polycarbonate filters (Costar Corp., Cambridge, Mass.) as previously described (Madara et al., 1992) with recently detailed modifications (Dharmsathaphorn and Madara, 1990). T84 cell monolayers reached a steady-state resistance 4 to 6 days after plating with some variability largely related to cell passage number. Cell culture inserts of inverted monolayers, used to study transmigration of PMN in the physiological basolateral-to-apical direction, were constructed as previously described (Madara et al., 1992; Dharmsathaphorn and Madara, 1990; Nash et al., 1991).
as §2
Arachidonic acid is the initial substrate used by a variety of metabolic pathways involving lipoxygenase (LO) activities—enzymes that add hydroxyl groups at specific carbon atoms of this 20-carbon fatty acid. […] Therefore, in addition to hepoxilin A3, a wide range of arachidonic acid metabolites for their ability to incite the transmigration of PMNs across T84 monolayers in vitro was examined (Table 1). […] This is consistent with previous reports that LTB4 is capable of inducing PMN transmigration.

[8] = test system: P. aeruginosa-induced PMN transepithelial migration, A549 cells; assay: P. aeruginosa-induced PMN transepithelial migration across A549 cell monolayers; type: cell-based, human; settings: excess hepoxilin A3 added to basolateral compartment; data not shown
Description: It was further determined whether similar hepoxilin A3 recruitment of PMN by apically attached pathogens might occur at other mucosal surfaces. Pseudomonas aeruginosa is the most prominent bacterial spp. present during chronic infection in cystic fibrosis and chronic obstructive pulmonary disease patients and is accompanied by severe inflammation, including the emigration of PMN to the airway lumen (Pizurki et al., 2000; Jahn et al., 2000; Weiss, S. 1989). As a model for the airway epithelium the A549 cell line was used. This cell line is capable of forming a polarized barrier, and is widely employed as a model for the airway epithelial surface (Smart and Casale, 1994). […] Finally, the secretion of hepoxlin A3 in vitro was quantified using this A549 model system. For these experiments, A549 lung epithelial cells (ATTC) were grown in F12K media (Invitrogen) with 10% FBS, and maintained in culture similar to the T84 cell line. The wild type P. aeruginosa (PAO1) was used for infection of A549 after overnight aerobic growth (Luria broth) at 37° C.

For CCCCC/C=C\C[C@@H]1O[C@H]1/C=C/C(O)C/C=C\CCCC(=O)O (some centres unmarked) [hepoxilin A3], the PMN degranulation [1] was “did not induce PMN degranulation; also recorded: not observed”, the “effect of basolateral addition on PMN transepithelial migration” value [2] was “significantly diminished PMN transepithelial migration” and the “stability in acetonitrile/0.1% trifluoroacetic acid” value [3] was “labile”. For the same compound, the “time to 50% loss of intact compound (T1/2), single experiments” value ([4]; apical chamber) was 1.28 h and 1.45 h, the “time to 50% loss of intact compound (T1/2), average” value ([4]; apical chamber of T84 monolayers) was 1.37 h and the “time to 50% loss of intact compound (T1/2), single experiments” value ([4]; basolateral compartment) was 0.817 h and 0.625 h. The “time to 50% loss of intact compound (T1/2), average” value ([4]; basolateral compartment of T84 monolayers) was 0.717 h, the “PMN intracellular Ca2+ mobilization” value [5] was “elicited an increase in [Ca^2+] in PMN” and the “intracellular Ca2+ in PMN” value ([5]; 5 μg/ml, FIG. 4B) was “increase in intracellular Ca^2+”. For the same compound, the “amount of intact compound recovered from the basolateral compartment” value [6] was “low but detectable amount and low”, the “PMN transepithelial migration induced by imposed gradients” value ([7]; hepoxilin A3 0.5-5 μg/ml, FIG. 4A) was “induce PMN transepithelial migration in a dose dependent fashion” and the “PMN transepithelial migration (PEEC activity) induced by added lipid” value [7] was “induced transepithelial migration”. The “PMN transepithelial migration (PEEC activity) induced by added lipid” value ([7]; listed as Hepoxilin A3) was “saturated response” and the “P. aeruginosa-induced PMN transepithelial migration with gradient disruption” value [8] was “inhibited”.

Source: patent publication US20040265323A1, “Compositions comprising pathogen elicited epithelial chemoattractant (eicosanoid hepoxilin A3), inhibitors thereof and methods of use thereof” (priority 2003, published 2004)
